Four compounds from patent publication US4327085A, “Biologically active compositions and methods of use” (Agence National de Valorisation de la Recherache (ANVAR), priority 1973, dated 1982) can be followed below.

For assay [1], the system named is Klebsiella pneumoniae, strain of capsular type 2, biotype d. Kind of assay: Anti-infectious protection of mice against Klebsiella pneumoniae infection. It is filed as in vivo, hybrid mice (C57B1/6×AKR)F1. The conditions noted are these: compound iv. 100 μg at -24 h; for % protection: difference of % survivors vs controls.
Assay [2] deals with bovine serum albumin (BSA) antigen. Kind of assay: Adjuvant activity in aqueous phase: anti-albumin antibody rate by passive hemagglutination. It is filed as in vivo, Swiss mice. The conditions noted are these: S.C., 100 μg with BSA 0.5 mg/animal in isotonic saline. The method, then: In the series of tests of which the results are indicated hereafter, the influence of the active principle according to the invention was assessed as bearing on the anti-albumin antibody rate, particularly under the following conditions.
Groups of 8 two-month-old Swiss mice received by subcutaneous injection (SC) or orally (PO) 0.5 mg of antigen constituted by the bovine serum albumin (BSA) with or without the substance tested in an isotonic saline solution. This large dose of antigen, because of its closeness to the limit paralysing dose with respect to the immunising response, elicits but a weak or no immune response in the controls; it therefore constitutes a severe criterion for showing the activity of an adjuvant substance. Thirty days later, the mice received, by the same method of administration, a further dose containing 0.1 mg of the same antigen.
The proportion of antibody was determined by passive hemagglutination by using sheep red blood cells treated with formalin and coated with the antigen studied according to the method described by A. A. HIRATA and M. W. […] (J. Immunol., 100, 641-648, 1968). Blood samples were taken 14, 28, 34 and 36 days after the first injection.

As for `CC(=O)N[C@@H]1[C@@H](O[C@H](C)C(=O)N[C@@H](C)C(=O)N[C@H](CCC(=O)O)C(N)=O)[C@H](O)[C@@H](CO)O[C@H]1O` [Mur--NAc--L-Ala--D-Glu(OH)--NH2, Mur--NAc--L--Ala--D--Glu(OH)--NH2, reference compound], in assay [1] (K. pneumoniae im. 1,5 × 10^4), the “% survival D + 3” value was 83%, the “% survival D + 5” value is 66%, the “% survival D + 10” value worked out at 60% and the “% protection” value is 47%. Further, the “Titer of antibody 28th day” value in assay [2] came out at 25.
With `CC(=O)N[C@H]1C(O)O[C@H](COC(=O)CCC(=O)O)[C@@H](O)[C@@H]1O[C@H](C)C(=O)N[C@@H](C)C(=O)N[C@H](CCC(=O)O)C(N)=O` (stereo partly drawn) [6-O-succinyl-Mur-NAc--L--Ala--D--Glu,(OH)--NH2], in assay [1] (K. pneumoniae im. 2 × 10^4), the “% survival D + 3” value worked out at 100%, the “% survival D + 5” value worked out at 91%, the “% survival D + 10” value amounted to 63% and the “% protection” value was found to be 44%.
`CC(=O)N[C@H]1C(O)O[C@H](CO)[C@@H](O)[C@@H]1OCC(=O)N[C@@H](C)C(=O)N[C@H](CCC(=O)O)C(N)=O` (stereo partly drawn) [norMur--NAc--L-Ala--D-Glu(OH)--NH2, 2(2-acetamido-2-deoxy-3-O-D-glucopyranosyl)-acetyl-L-alanyl-D-isoglutamine]: in assay [1] (K. pneumoniae im. 1,5 × 10^4), the “% survival D + 3” value is 78%, the “% survival D + 5” value is given as 64%, the “% survival D + 10” value is given as 60% and the “% protection” value is listed as 47%. Also, the “Titer of antibody 28th day” value in assay [2] was 25.
Regarding `CC(=O)N[C@H]1C(O)O[C@H](COC(C)=O)[C@@H](OC(C)=O)[C@@H]1O[C@H](C)C(=O)N[C@@H](C)C(=O)N[C@H](CCC(=O)O)C(N)=O` (stereo partly drawn) [4,6-di-O-acetyl--Mur--NAc--L--Ala--D--Glu(OH)--NH2], in assay [1] (K. pneumoniae im. 2 × 10^4), the “% survival D + 3” value was 97%, the “% survival D + 5” value was 84%, the “% survival D + 10” value is reported as 63% and the “% protection” value turned out to be 47%.
